The results in this text go back to PubChem BioAssay AID651759 (The Scripps Research Institute Molecular Screening Center, 2012).

Several values for one entry are separate records, joined by “and”; a condition that tells them apart may be missing. Identical values can stand only once. Activity calls are given as the source filed them. No rule for the calls is given here.

For the experiment, the target named is Perilipin-5 (Homo sapiens) + 1-acylglycerol-3-phosphate O-acyltransferase ABHD5 (Homo sapiens) (UniProt Q00G26+Q8WTS1). Description: ABHD5-PLIN5 interaction inhibitors, late-stage follow-up, cell lysate, luminescence, proteins expressed in HEK293T (AID 651759).
Chain of Perilipin-5 (Homo sapiens) + 1-acylglycerol-3-phosphate O-acyltransferase ABHD5 (Homo sapiens) (Q00G26 whole entry, looked up): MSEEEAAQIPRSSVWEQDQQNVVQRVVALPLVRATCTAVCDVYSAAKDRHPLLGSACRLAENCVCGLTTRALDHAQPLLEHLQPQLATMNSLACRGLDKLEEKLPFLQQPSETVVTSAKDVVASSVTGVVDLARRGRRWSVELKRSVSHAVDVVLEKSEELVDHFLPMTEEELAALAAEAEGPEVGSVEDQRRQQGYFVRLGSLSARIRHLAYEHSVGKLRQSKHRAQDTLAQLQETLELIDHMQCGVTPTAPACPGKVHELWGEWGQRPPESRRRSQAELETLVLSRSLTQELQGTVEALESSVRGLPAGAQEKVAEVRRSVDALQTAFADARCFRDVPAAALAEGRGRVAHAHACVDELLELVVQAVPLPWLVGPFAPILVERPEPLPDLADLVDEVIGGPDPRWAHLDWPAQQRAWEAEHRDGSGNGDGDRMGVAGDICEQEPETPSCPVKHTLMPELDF
Chain of Perilipin-5 (Homo sapiens) + 1-acylglycerol-3-phosphate O-acyltransferase ABHD5 (Homo sapiens) (Q8WTS1 whole entry, looked up): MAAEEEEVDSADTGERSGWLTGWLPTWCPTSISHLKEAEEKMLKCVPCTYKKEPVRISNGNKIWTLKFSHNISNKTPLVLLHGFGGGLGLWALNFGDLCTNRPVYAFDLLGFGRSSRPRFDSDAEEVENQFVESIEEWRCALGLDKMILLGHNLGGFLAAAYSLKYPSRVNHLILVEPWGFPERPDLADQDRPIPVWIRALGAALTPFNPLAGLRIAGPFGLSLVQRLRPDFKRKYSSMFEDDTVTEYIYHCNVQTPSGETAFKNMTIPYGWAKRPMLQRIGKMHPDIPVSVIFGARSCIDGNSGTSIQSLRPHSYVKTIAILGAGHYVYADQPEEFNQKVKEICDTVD
As for `CCOC(=O)c1c(NC(C)=O)sc2c1CCC(C=O)=C2Sc1ccccc1`, the IC50 is 2.25 µM.

On to `CN(C)CCN(Cc1ccco1)c1ccccn1`, for which the IC50 is > 39.8 µM (inactive).

For `O=C(/C(=C/O)N=Nc1ccc(Cl)cc1)c1ccncc1`, the IC50 was 6.19 µM.

Consider `Cc1cc(C)c(NC(=O)C[N+](C)(C)CC(O)COc2cccc3ccccc23)c(C)c1` (stereo unspecified), for which the IC50 was 9.14 µM.

With `Cc1ccc2nc3cc([N+](=O)[O-])cc([N+](=O)[O-])c3cc2c1`, the IC50 is 1.44 µM.

`O=c1[nH]c(C2CCN(S(=O)(=O)c3ccc(F)cc3)CC2)nc2c1nnn2Cc1ccc2c(c1)OCCO2`: the IC50 result was “inactive”.

In the case of `CC(CCc1ccco1)NC(=O)CCc1nnc2ccc(NCc3ccccc3Cl)nn12` (stereo unspecified), the half-inhibitory concentration (IC50) was 2.89 µM.

On to `CC1Sc2ccc(S(=O)(=O)N3CCC(C(=O)NCc4ccc(Cl)cc4)CC3)cc2NC1=O` (stereo unspecified), for which the IC50 was 8.86 µM.

As for `Cc1cc(C)c(NC(=O)CN2CCN3CCCC3C2)c(C)c1` (stereo unspecified), the IC50 is 7.06 µM.

As for `CC(=O)Oc1ccc(C23c4ccccc4C2(OC(C)=O)c2cc(OC(C)=O)ccc23)cc1` (stereo unspecified), the IC50 is > 39.8 µM (inactive).

`COc1cc2c(cc1OC)C(C)N(CCc1ccc(Cl)cc1)CC2` (stereo unspecified): the IC50 was 9.34 µM.

In the case of `CCOc1cc(N)c(Cl)cc1C(=O)NCC1CN(Cc2ccc(F)cc2)CCO1` (stereo unspecified), the IC50 was 1.29 µM.

With `O=c1[nH]c(C2CCN(S(=O)(=O)c3ccc(S(=O)(=O)NC4CC4)cc3)CC2)nc2c1nnn2Cc1ccc(F)cc1`, the 50% inhibitory concentration (IC50) was 1.33 µM.

Take `COc1ccc(C)c2sc(N(CCN(C)C)C(=O)/C=C/c3cccs3)nc12`: the IC50 entry was “inactive”.

In the case of `COc1cc(OC)cc(C(=O)NC(=S)N(Cc2ccccc2)C(C)C)c1`, the IC50 was 2.15 µM.

Consider `Cc1cc(C)c2nc(NNC(=O)c3ccc(S(=O)(=O)N4CCCC(C)C4)cc3)sc2c1` (stereo unspecified), for which the IC50 is 3.89 µM.

Turning to `Cc1nc2c(o1)CCc1ccccc1C2N1CCN(C)CC1` (stereo unspecified), the half-maximal inhibitory concentration (IC50) is 2.25 µM.

For the compound `CC1=CC(C)(C)Nc2ccc(OC(=O)C(C)N3C(=O)c4ccccc4C3=O)cc21` (stereo unspecified), the half-inhibitory concentration (IC50) was 4.25 µM.

With `O=C(C[n+]1cccc(CNC(=O)c2ccc(OC(F)F)cc2)c1)Nc1cccc(C(F)(F)F)c1`, the IC50 was > 39.8 µM (inactive).

Turning to `CC1CCN(S(=O)(=O)c2ccc(NC(=O)Cc3cccs3)cc2)CC1`, the concentration for half-maximal inhibition (IC50) is 9 µM.

On to `CC(=O)Cc1cc(O)c2ccccc2c1OC(=O)c1ccccc1`, for which the IC50 is 3.56 µM.

Regarding `CN1CCC(=C2c3ccccc3CC(=O)c3sccc32)CC1`, the IC50 is > 39.8 µM (inactive).

Regarding `CN(C)CCOC1(Cc2ccc(F)cc2)CCC(C(C)(C)C)CC1` (stereo unspecified), the IC50 was > 39.8 µM (inactive).

With `COc1ccc(NC(=S)N(CCCN2CCCC2)Cc2cccn2Cc2ccc(Cl)cc2)cc1Cl`, the IC50 entry was “inactive”.

On to `Cc1ccc2c(CC(=O)N3CCN(S(=O)(=O)c4ccc5c(c4)OCCO5)CC3)coc2c1`, for which the IC50 is 2.97 µM and 5.73 µM.

Turning to `CCCCNC(=O)Nc1ccc2c(c1)N(C)C(=O)c1ccccc1S2`, the IC50 was 3.12 µM.

With `COc1ccccc1-c1cc(C(=O)NC2CCN(C)CC2)c2ccc(Cl)c(C)c2n1`, the IC50 is > 13.3 µM (inactive).

As to `CCCNC(=O)Nc1ccc2c(c1)N(C)C(=O)c1ccccc1S2`, the half-inhibitory concentration (IC50) was 5.58 µM.

`CC(=O)Cc1cc(O)c2ccccc2c1OC(=O)c1ccc(Br)cc1`: the IC50 was 4.75 µM.

Regarding `CCN(CC)CCNC(=O)c1ccc(NC(=O)c2cn(-c3ccccc3)nc2-c2cccs2)cc1`, the IC50 entry is “inactive”.

Regarding `NC(=NCCCCCCN=C(N)/N=C(\N)Nc1ccc(Cl)cc1)/N=C(\N)Nc1ccc(Cl)cc1`, the IC50 was 6.22 µM and 6.86 µM.

For the compound `CCN(CC)CCN(CC(=O)Nc1c(C)cc(C)cc1C)C(=O)c1ccccc1`, the IC50 is 2.85 µM.

On to `CC1CCN(S(=O)(=O)c2ccc(NC(=O)Cc3ccccc3)cc2)CC1`, for which the IC50 was 7.89 µM.

On to `CC(=O)Nc1ccc(S(=O)(=O)N2c3ccc(F)cc3CCC2C)cc1` (stereo unspecified), for which the IC50 entry is “inactive”.

In the case of `COc1cc(C)c2sc3ccccc3c(=O)c2c1NCCN(C)C`, the IC50 was > 39.8 µM (inactive).

On to `CCCCOC(=O)Nc1cc(C(=O)OC)ccc1C(=O)OC`, for which the concentration for half-maximal inhibition (IC50) is 3.7 µM.

As for `CN(C)CCCN(C(=O)CCc1ccccc1)c1nc2ccc(Br)cc2s1`, the IC50 result was “inactive”.

For the compound `CN(C)CCCN(C(=O)CCc1ccccc1)c1nc2ccc(Cl)cc2s1`, the IC50 entry was “inactive”.

`CCN(CC)CCOCCOC(=O)C1(c2ccccc2)CCCC1`: the IC50 was 1.26 µM.

Take `FC(F)(F)c1cccc(NC(=S)N(CCCN2CCCC2)Cc2cccn2Cc2ccc(Cl)cc2)c1`: the IC50 result is “inactive”.

As to `CCOC(=O)c1c(NC(=O)/C=C/C(=O)O)sc(C)c1-c1ccc(C(C)(C)C)cc1`, the IC50 was 4.5 µM.

As to `CC(C)c1ccc(N2C=Nc3ccc(C(C)C)cc3C2)cc1`, the IC50 was 1 µM.

`C=C[C@]1(C)C[C@@H](OC(=O)CSCCN(CC)CC)[C@]2(C)C(C)CC[C@]3(CCC(=O)[C@H]32)[C@@H](C)[C@@H]1O` (stereo partly specified): the IC50 is 4.45 µM.

As for `COCCN(CCOC)c1nc(N)c2c(N)nc3c(c2c1C#N)CC(=O)N3Cc1ccc(Cl)cc1`, the IC50 was > 39.8 µM (inactive).

For the compound `CCN(CC)CCOc1ccc(/C(=C(/Cl)c2ccccc2)c2ccccc2)cc1`, the concentration for half-maximal inhibition (IC50) was 1.32 µM.

As for `CCN(CC)CCC(C)OC(c1ccccc1)c1ccccc1` (stereo unspecified), the half-maximal inhibitory concentration (IC50) is 1.38 µM.
